Data set [1] relates to bone marrow-derived dendritic cells (including both cDCs and pDCs). The data set can be described thus: Test 1 (A) TNF-α gene expression in bone marrow-derived dendritic cells (real-time PCR). In kind it is cell-based, mouse. Particulars: test substance 10 μg/mL, 72 hours; TNF-α/β-actin, control with no test substance set to 1. The method, then: After dissection of a C57BL/6J mouse (8 weeks old), bone marrow mononuclear cells were sampled from the femur and tibia, and cultured using a differentiation induction medium (RPMI 1640 medium containing 10% fetal bovine serum, 100 μM of 2-mercaptoethanol, and 100 ng/ml of Flt3 ligand). […] After the medium was removed from each well, 100 μL of a differentiation induction medium containing 0.5% DMSO, which was prepared so that a total concentration of the test substances was 10 μg/mL (for young barley leaf juice powder, the concentration of young barley leaf juice ingredient excluding dextrin was 10 μg/mL), was added to each well and cultured for 72 hours. After that, the medium was removed from each well, and RNA was collected using the RNeasy Mini Kit (manufactured by QIAGEN). From the obtained RNA, a gene expression level (mRNA expression level) of TNF-α was measured by the real-time PCR method using the One Step TB Green® PrimeScript™ RT-PCR Kit II <Perfect Real Time> (manufactured by TaKaRa). For a primer, Mm_Il12B_1_SG QuantiTect Primer Assay and Mm_Tnf1_SG QuantiTect Primer Assay (manufactured by QIAGEN) were used.

A further data set has as its system NK cells. The data set can be described thus: Test 3 NK cell cytotoxicity of spleen cells against calcein-stained YAC-1 target cells. Particulars: test substance 1 μg/mL, 18 hours, then YAC-1 target cells 4 hours, control set to 1. The data set is classed as cell-based, mouse. How it is done: After dissection of a C57BL/6J mouse (8 weeks old), spleen cells were isolated, and a cell suspension prepared by dilution in a 10% fetal bovine serum-RPMI 1640 medium was seeded at 100 µL/well so that the cells were seeded at 5×10^6 cells/well in a 96-well plate. To the seeded cells, a medium (0.5% DMSO-10% fetal bovine serum-RPMI 1640 medium) prepared to have a total concentration of test substances of 1 μg/mL (for young barley leaf juice powder, the concentration of young barley leaf juice ingredient excluding dextrin was 1 μg/mL) was added at 100 μL/well, and the resultant was cultured for 18 hours in a 5% CO2 incubator (“CO2 Incubator” manufactured by ASTEC) at 37° C.
After culture, the plate was centrifuged (at 1,000 rpm for 10 minutes) using a centrifuge. 150 μL of the supernatant was removed, and 150 μL of 1% BSA-RPMI 1640 was added. This process was repeated once more. After that, YAC-1 cells (stained with calcein) sensitive to NK cells were added as target cells, and the resultant was cultured for 4 hours.
After culture, the plate was centrifuged (at 1,000 rpm for 10 minutes) using a centrifuge, and the supernatant was collected in a 96-well black plate. The collected supernatant was measured for fluorescence intensity (at an excitation wavelength of 490 nm and a fluorescence wavelength of 515 nm) using a microplate reader (“SpectraMax i3x” manufactured by Molecular Devices), and the NK cell cytotoxicity was evaluated.
The NK cell cytotoxicity (relative value) is shown in Table 5 with the value of the control set to 1. A higher relative value of NK cell cytotoxicity indicates greater activation of NK cells. […] Even if dietary fiber (cellulose), Vitamin D, or Spirulina, which are known to have immune-stimulating effects, was added, the NK cells were not activated.

Turning to β-glucan [compound 3], in data set [1], the “TNF-α gene expression level (relative value)” value was found to be 1.17. Also, the “NK cell cytotoxicity (relative value)” value in the data set on NK cells is listed as 1.04.
Take Cellulose [compound 1]: the results for the “NK cell cytotoxicity (relative value)” value with NK cells and in the data set on NK cells (listed as Comparative Example 4) were “not activated” and 1.05, respectively.
Consider `C=C1CC[C@H](O)C/C1=C/C=C1\CCC[C@]2(C)[C@@H]([C@H](C)CCCC(C)C)CC[C@@H]12` [compound 2, Vitamin D3], for which the entries for the “NK cell cytotoxicity (relative value)” value in the data set on NK cells and with NK cells (listed as Comparative Example 5) were “not activated” and 0.93, respectively.

Source of the values: patent publication US20250127840A1, “METHOD FOR ACTIVATING DENDRITIC CELLS AND METHOD FOR ACTIVATING NATURAL KILLER CELLS, HELPER T CELLS, KILLER T CELLS, B CELLS, OR MACROPHAGES” (TOYO SHINYAKU CO., LTD., priority 2023, published 2025).
